Data from patent US20240025899A1, “TRIHETEROCYCLIC DERIVATIVE, AND PHARMACEUTICAL COMPOSITION AND APPLICATION THEREOF” (SHANGHAI DE NOVO PHARMATECH CO., LTD., priority 2020, published 2024).
Structures can show the parent of a compound that is named as a salt. Where two headings read alike, the source gives them in different places.

Columns and labels:
CYP2D6 = CYP2D6 (Homo sapiens (Human), UniProt P10635); test: Cytochrome oxidase P450 inhibition study, CYP2D6; assay type: in vitro ADME; conditions: human liver microsomes; read-out: IC50 2D6
Method: (§1) LC-MS/MS methods were used to evaluate the inhibitory effects of compounds on CYP2C19, 2D6 and 3A4 subtypes. In this method, the test compound was mixed with a solution of human liver microsomes containing CYP model substrates, and incubated together under the addition of NADPH, then the inhibitory IC50 of the compound on CYP2C19, 2D6 and 3A4 was calculated by measuring the amount of metabolites of the model substrate in the reaction solution. The specific experimental method is as follows:
(§2) Compounds to be tested were prepared as stock solutions at 10 mM concentration with DMSO and then diluted to 4 mM with acetonitrile solution. At the same time, the corresponding reference inhibitor solutions for CYP subtypes were prepared, for example, the reference inhibitor was Ketoconazole, then these two compounds were prepared separately ([…] of inhibitor DMSO stock solution+[…] of acetonitrile), and the samples prepared under the above conditions were at 400× concentration. Then, the above solution was 3-fold diluted with DMSO/acetonitrile mixture (v/v: 40/60) to prepare the final test solution, and seven concentration points were set for each test compound, and the initial test final concentration was 10 μM. […]
(§3) […] of human liver microsome solution (0.2 mg/mL) was added to each well containing the test compound in the 96-well plate, and then 2 mL of the final test sample of test compounds prepared by serial dilution as described above was added thereto; for each well corresponding to the reference inhibitors, […] of human liver microsome solution (0.2 mg/mL) and 1 mL of the final test sample were added. […] The inhibition rate was determined by comparing the amount of model substrate metabolites at each test concentration without test substance addition, in the GraphPad Prism 5.0 software, the logarithm of the test concentration was used as the abscissa and the inhibition rate was used as the ordinate to perform a linear regression (Sigmoidal (non-linear) dose-response model) analysis to obtain the IC50 value of the test compound.

ATR/ATRIP kinase = ATR/ATRIP kinase (Homo sapiens (Human), UniProt Q13535); test: ATR enzyme assay (HTRF, phosphorylation of substrate protein P53); assay type: biochemical; conditions: substrate P53, TR-FRET
Method: In this experiment, the phosphorylation level of substrate protein P53 (Eurofins, 14-952) was detected by HTRF technology to measure the activity of ATR/ATRIP (Eurofins, 14-953) kinase. Reaction buffer (25 mM HEPES pH 8.0, 0.01% Brij-35, 1% Glycerol, 5 mM DTT, 1 mg/mL BSA), termination buffer (12.5 mM HEPES pH 8.0, 0.005% Brij-35, 0.5% Glycerol, 250 mM EDTA) and assay buffer (50 mM HEPES pH 7.0, 150 mM NaCl, 267 mM KF, 0.1% sodium cholate, 0.01% Tween 20) were prepared in advance. ATR/ATRIP was diluted with reaction buffer to a working solution of 2 ng/μL, and the substrate protein P53 was diluted with reaction buffer to a working solution of 80 nM, and 4 nM of ATP (Sigma, A2383) working solution (containing 40 mM MnCl2) was prepared with reaction buffer. The compound was 3-fold diluted with DMSO, then diluted with reaction buffer into a working solution, then added to a 384-well plate at 2.5 μL/well, and centrifuged at 1500 rpm for 40 s. Then 2.5 μL of ATR/ATRIP working solution, P53 working solution and ATP working solution were added into the 384-well plate, centrifuged at 1500 rpm for 40 s and reacted at room temperature for 30 minutes. After the reaction was completed, 5 μL of termination buffer was added to each well, and centrifuged at 1500 rpm for 40 s. Antibody working solution containing 0.083 μg/mL anti-phospho-p53 (Ser15)-K (CisBio, cat. 61P08KAE) and 5 μg/mL anti-GST-d2 (CisBio, cat. 61GSTDLA) was prepared with assay buffer and added to the 384-well plate at 5 μL/well, then centrifuged at 1500 rpm for 40 s and reacted overnight at room temperature. Microplate reader (Tecan, Infinite M1000 Pro) was used to detect TR-FRET, and the data were analyzed with Graphpad software, and the four-parameter equation was used to fit the curve and calculate the IC50 value of the inhibitor (Table 1).

hERG channel = hERG channel (Homo sapiens (Human), UniProt Q12809); test: Cardiac safety evaluation, hERG study (QPatch whole-cell recording); assay type: cell-based; conditions: CHO cell line expressing hERG channel
Method: In this experiment, a CHO cell line stably transfected with hERG cDNA and expressing p15 hERG channel was used. Cells were incubated at 37° C. in a humidified incubator containing 5% CO2 in medium (Ham's F12, 10% v/v FBS, 100 μg/mL hygromycin B, 100 μg/mL geneticin) (from Invitrogen). Cells were grown under the above conditions and reached approximately 80-90% of the confluency. Cells were treated with Detachin (Genlantis) for 3 to 5 minutes. The medium was titrated 15 to 20 times at 37° C., and then the cells were resuspended in CHO-S-SFM II medium (serum-free medium, Invitrogen) buffered with HEPES (25 mM). Cells used for QPatch studies must meet the following criteria: Most suspension cells should be single and isolated under microscopy; viability should be greater than 95%; cell density in the final suspension should be in the range of 3 to 8×10^6 cells/mL before application to the QPatch stir chamber. Cells meeting the above conditions can be used for recordings within 4 hours of harvest.
Test compounds were made into 10 mM DMSO stock solutions. Six doses (30, 10, 3, 1, 0.3 and 0.1 μM) were selected to obtain the fitted curves and IC50. The final DMSO concentration was 0.1% or less. The IC50 of the positive control cisapride was assessed at doses of 3, 1, 0.3, 0.1, 0.03 and 0.01 μM, respectively. Composition of […] for electrophysiological recordings: CaCl2 2 mM, MgCl2 1 mM, KCl 4 mM, NaCl 145 mM, Glucose 10 mM, HEPES 10 mM, pH 7.4 (NaOH), composition of external solution: CaCl2 […], MgCl2 1.75 mM, KCl 120 mM, HEPES 10 mM, EGTA 5 mM, Na-ATP 4 mM, pH 7.25 (KOH) (all reagents used were from sigma).
Whole-cell recordings were performed using automated QPatch (Sophion Biosciences, Denmark). Cells were recorded for 120 s to assess current stability. The above voltages were then applied to the cells every 15 s throughout the procedure. […]
The data were analyzed with Sophion Assay software (determination software V5.0), Microsoft Excel and Graphpad Prism 5.0 to obtain IC50 of compounds.

CYP2C19 = CYP2C19 (Homo sapiens (Human), UniProt P33261); test: Cytochrome oxidase P450 inhibition study, CYP2C19; assay type: in vitro ADME; conditions: human liver microsomes; read-out: IC50 2C19
Method: as §1, §2, §3

CYP3A4 = CYP3A4 (Homo sapiens (Human), UniProt P08684); test: Cytochrome oxidase P450 inhibition study, CYP3A4; assay type: in vitro ADME; conditions: human liver microsomes
Method: as §1
Compounds to be tested were prepared as stock solutions at 10 mM concentration with DMSO and then diluted to 4 mM with acetonitrile solution. At the same time, the corresponding reference inhibitor solutions for CYP subtypes were prepared, for example, the reference inhibitor was Ketoconazole, then these two compounds were prepared separately ([…] of inhibitor DMSO stock solution+[…] of acetonitrile), and the samples prepared under the above conditions were at 400× concentration. Then, the above solution was 3-fold diluted with DMSO/acetonitrile mixture (v/v: 40/60) to prepare the final test solution, and seven concentration points were set for each test compound, and the initial test final concentration was 10 μM. NADPH, CYP enzyme model substrate and human liver microsome solution were diluted to appropriate concentrations with pre-warmed potassium phosphate buffer (0.1 M, pH 7.4), respectively. The human liver microsome solution was purchased from BD Gentest (20 mg/mL, Corning, article number #452161).
[…] of human liver microsome solution (0.2 mg/mL) was added to each well containing the test compound in the 96-well plate, and then 2 mL of the final test sample of test compounds prepared by serial dilution as described above was added thereto; for each well corresponding to the reference inhibitors, […] of human liver microsome solution (0.2 mg/mL) and 1 mL of the final test sample were added. […] of the prepared corresponding model substrate was dispensed into a 96-well plate, and the microsome solution was mixed evenly, then 30 mL of the test compound/reference inhibitor-human liver microsome mixture was taken and transferred to the 96-well plate containing the substrate, and the mixture was mixed well and preheated at 37° C. for 5 minutes, then […] of 8 mM NADPH solution preheated at 37° C. was added thereto to start the reaction. A duplicate well control and a blank control without the addition of test substances were set at the same time. The 96-well plate containing a total volume of […] of reaction solution was incubated at 37° C. After the incubation, 120 μL of cold acetonitrile solution containing internal standard was added to each well to terminate the reaction, and then the 96-well plate was shaked on a microplate shaker for 5 minutes (600 rpm/min), and put into a centrifuge and centrifuged for 20 minutes at 6000 rpm, 4° C. Then 40 μL of supernatant from each well was transferred to another 96-well plate, and 80 μL of ultrapure water was added to each well, put into a shaker and mixed for 5 minutes (600 rpm/min), and centrifuged at 6000 rpm, 4° C., for 20 minutes. Then LC-MS/MS detection was performed. The inhibition rate was determined by comparing the amount of model substrate metabolites at each test concentration without test substance addition, in the GraphPad Prism 5.0 software, the logarithm of the test concentration was used as the abscissa and the inhibition rate was used as the ordinate to perform a linear regression (Sigmoidal (non-linear) dose-response model) analysis to obtain the IC50 value of the test compound.

Sequence of CYP3A4 (P08684 whole entry): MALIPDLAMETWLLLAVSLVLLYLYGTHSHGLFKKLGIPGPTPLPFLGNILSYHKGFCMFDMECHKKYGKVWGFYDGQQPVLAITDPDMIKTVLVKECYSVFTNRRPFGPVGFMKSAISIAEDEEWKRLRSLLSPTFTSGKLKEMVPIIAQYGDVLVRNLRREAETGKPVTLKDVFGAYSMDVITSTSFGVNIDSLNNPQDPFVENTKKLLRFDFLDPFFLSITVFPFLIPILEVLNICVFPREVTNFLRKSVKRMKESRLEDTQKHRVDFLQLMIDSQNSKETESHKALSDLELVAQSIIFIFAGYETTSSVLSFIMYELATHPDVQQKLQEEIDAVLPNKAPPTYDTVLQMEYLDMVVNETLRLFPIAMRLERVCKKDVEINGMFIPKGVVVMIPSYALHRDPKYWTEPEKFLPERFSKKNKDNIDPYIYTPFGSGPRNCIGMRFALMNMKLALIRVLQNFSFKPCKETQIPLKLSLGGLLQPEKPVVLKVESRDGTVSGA
Sequence of CYP2D6 (P10635 whole entry): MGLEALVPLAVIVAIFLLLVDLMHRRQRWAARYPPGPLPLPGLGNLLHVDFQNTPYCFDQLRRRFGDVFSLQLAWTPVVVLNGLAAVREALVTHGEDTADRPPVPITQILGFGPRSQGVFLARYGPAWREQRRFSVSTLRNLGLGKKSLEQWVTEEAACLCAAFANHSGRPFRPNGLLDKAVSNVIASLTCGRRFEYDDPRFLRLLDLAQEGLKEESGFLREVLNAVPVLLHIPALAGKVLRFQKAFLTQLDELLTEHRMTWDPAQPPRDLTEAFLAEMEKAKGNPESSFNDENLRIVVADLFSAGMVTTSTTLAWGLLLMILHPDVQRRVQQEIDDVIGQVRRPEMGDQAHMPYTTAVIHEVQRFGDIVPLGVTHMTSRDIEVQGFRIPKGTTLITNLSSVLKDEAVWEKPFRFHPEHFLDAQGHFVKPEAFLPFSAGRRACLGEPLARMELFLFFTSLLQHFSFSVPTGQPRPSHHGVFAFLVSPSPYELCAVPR
Sequence of hERG channel (Q12809 whole entry): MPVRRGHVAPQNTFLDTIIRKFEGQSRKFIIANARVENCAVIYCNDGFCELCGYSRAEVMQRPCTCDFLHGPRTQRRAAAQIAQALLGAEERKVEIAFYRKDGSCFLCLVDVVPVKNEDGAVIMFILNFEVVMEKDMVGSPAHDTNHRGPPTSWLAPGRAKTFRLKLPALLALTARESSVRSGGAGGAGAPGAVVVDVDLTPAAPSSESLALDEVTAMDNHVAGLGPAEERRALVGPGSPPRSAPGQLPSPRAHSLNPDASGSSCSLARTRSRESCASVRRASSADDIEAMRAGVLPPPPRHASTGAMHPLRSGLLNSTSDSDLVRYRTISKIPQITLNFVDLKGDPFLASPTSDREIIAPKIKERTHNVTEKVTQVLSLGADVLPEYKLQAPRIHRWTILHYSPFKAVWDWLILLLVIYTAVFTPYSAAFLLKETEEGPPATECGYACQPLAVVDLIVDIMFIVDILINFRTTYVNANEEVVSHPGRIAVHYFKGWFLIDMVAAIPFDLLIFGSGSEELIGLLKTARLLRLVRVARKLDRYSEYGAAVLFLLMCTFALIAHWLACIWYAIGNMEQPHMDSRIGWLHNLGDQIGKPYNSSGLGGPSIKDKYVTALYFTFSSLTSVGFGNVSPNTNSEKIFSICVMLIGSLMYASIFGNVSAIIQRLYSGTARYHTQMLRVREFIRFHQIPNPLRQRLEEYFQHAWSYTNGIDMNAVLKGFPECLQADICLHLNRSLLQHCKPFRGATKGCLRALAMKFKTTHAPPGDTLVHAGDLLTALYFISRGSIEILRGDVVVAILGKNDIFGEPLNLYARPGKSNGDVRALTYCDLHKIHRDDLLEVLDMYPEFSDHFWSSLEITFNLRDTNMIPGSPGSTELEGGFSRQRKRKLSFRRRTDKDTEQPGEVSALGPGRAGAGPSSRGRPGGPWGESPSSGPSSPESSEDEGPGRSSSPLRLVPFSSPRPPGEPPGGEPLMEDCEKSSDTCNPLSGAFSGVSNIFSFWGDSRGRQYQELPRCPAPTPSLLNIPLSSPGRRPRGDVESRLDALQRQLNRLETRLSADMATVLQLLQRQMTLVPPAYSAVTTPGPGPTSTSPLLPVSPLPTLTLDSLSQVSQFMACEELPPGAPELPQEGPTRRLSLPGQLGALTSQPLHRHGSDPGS
Sequence of CYP2C19 (P33261 whole entry): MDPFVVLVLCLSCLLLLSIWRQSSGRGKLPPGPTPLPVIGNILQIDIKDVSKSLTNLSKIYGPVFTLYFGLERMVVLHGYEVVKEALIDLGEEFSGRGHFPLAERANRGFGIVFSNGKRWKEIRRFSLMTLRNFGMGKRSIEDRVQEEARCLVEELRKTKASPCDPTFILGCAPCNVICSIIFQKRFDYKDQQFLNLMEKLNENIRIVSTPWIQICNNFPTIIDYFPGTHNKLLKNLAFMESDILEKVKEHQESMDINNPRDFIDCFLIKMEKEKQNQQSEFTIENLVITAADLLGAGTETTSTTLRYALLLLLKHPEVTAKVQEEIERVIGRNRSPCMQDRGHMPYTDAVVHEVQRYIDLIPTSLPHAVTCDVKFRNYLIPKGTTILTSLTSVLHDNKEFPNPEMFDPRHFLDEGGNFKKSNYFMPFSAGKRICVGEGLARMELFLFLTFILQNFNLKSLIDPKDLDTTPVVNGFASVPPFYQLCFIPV

For `C[C@@H]1COCCN1c1nc2c(cnn2-c2cc[nH]n2)c2c1ccn2S(=O)(=O)N(C)C` [Compound 3, (R)—N,N-dimethyl-4-(3-methylmorpholino)-6-(1H-pyrazol-3-yl)pyrazolo[3,4-b]pyrrolo[2,3-d]pyridine-1(6H)-sulfonamide trifluoroacetate], the IC50 (CYP2D6) was > 10 µM, the IC50 (ATR/ATRIP kinase) was 0.00051 µM and the IC50 (hERG channel) was > 30 µM. The IC50 (CYP2C19) was > 10 µM, the IC50 (CYP3A4; substrate Midazolam, read-out: IC50 3A4 (Midazolam)) was > 10 µM and the IC50 (CYP3A4; substrate Testosterone, read-out: IC50 3A4 (Testosterone)) was > 10 µM.
